The source of these data is patent US7473434B2, “Maca extract and cosmetic composition containing such an extract” (Laboratoires Expanscience, priority 2003, dated 2009).

The subject of the test is Jurkat human lymphoid cells. In words: Lipid peroxide (LP) quantity in cells with or without UV irradiation, fluorescent probe, flow cytometry. It counts as cell-based. Particulars: for Fluorescence intensity Mean: mean of triplicate; for % of control: relative LP quantity; for 1/fluorescence intensity: relative quantity of lipid peroxides. The source says:
The purpose of the study is to evaluate the effects of the maca peptide extract on the lipid peroxidation rate (LP) in human cells (Jurkat) exposed or not to UVA+UVB radiation. LP measurement was made with a specific fluorescent probe by flow cytometry. This method has the advantage of showing great sensitivity when measuring the fluorescence of individual cells, over a large number of cells (10 000 cells analysed per sample). The cells used are Jurkat human lymphoid cells distributed in 24-well plates with 8.10^5 cells/well. The culture medium is RPMI 1640 (Invitrogen 31870-025) at […] and in the presence of 5% CO2. The test medium is MEM without phenol red and without calf serum (Polylabo 5503401). Tests are conducted with the peptide extract obtained in example 1, with twofold dilution i.e. in the form of an extract with 5% dry matter. A solution S1 containing 2% of this extract is prepared in the test medium. The control used is butyl hydroxyanisol (BHA Sigma ref. B 1253) in a […] solution in absolute ethanol. Tests are conducted with a solution S2 containing 100 μM BHA prepared in the test medium. […] Rad. Biol. Med., 1997, 22, 13-100) in a 5 μM solution in absolute ethanol. The tests are conducted using a 1 μM probe solution S3 prepared in the test medium. The human cells are pre-incubated in the culture medium, then washed in the test medium. They are subsequently incubated in the presence of the S1 solution of the peptide extract or the S2 control solution. The probe solution S3 is added to each batch for LP assay. After 45 minutes incubation, the fluorescent probe is removed by washing in the test medium. Part of the batches are then irradiated with […], another part without irradiation used as control. After 20 minutes incubation the fluorescence parameters are measured by flow cytometry. Determination of the relative quantity of lipid peroxides (LP) is based on measurement of the reduction in fluorescence of the probe integrated in the cell membranes. An increase in the fluorescence signal translates a reduction in the basal rate of membrane lipid peroxides. The studies are conducted in triplicate. The results obtained are expressed as the value of fluorescence intensity, and percentages with respect to the control are calculated using the values of fluorescence intensity.
For orientation: In flow cytometry, cells or beads pass a laser one at a time.

SMILES strings stand for the structures. “And” between values parts separate entries of the source, which are not always exact repeats. Equal values may be shown once.

With `COc1ccc(O)c(C(C)(C)C)c1` [BHA, butyl hydroxyanisol], the “Fluorescence intensity Mean” value reads like this: (with UV irradiation, BHA 100 μM, extract 2% solution) 374.67; (without UV, BHA 100 μM, 2% MC101) 753. Further, the “% of control” value (with UV irradiation, Test +UV = 100) came out at 50% and the “% of control” value (without UV, Control -UV = 100) is 67%. Besides, the 1/fluorescence intensity runs as follows: (with UV irradiation) 0.00267; (without UV) 0.00133. Besides, the Fluorescence intensity (with UV irradiation, single replicate values, BHA 100 μM, extract 2% solution) was 362.40 and 368.20 and 393.42. The “Fluorescence intensity n = 10000 cells” value (without UV, single replicate values, BHA 100 μM, 2% MC101) was 741.05 and 745.64 and 770.93.
